According to patent US4136173A (priority 1977, dated 1979):
Where a name gives a salt, the structure may show the parent alone.

Legend:
[1] = system: neuroleptically treated rats; experiment: ovulation after subcutaneous LH-RH in neuroleptically treated rats; assay type: in vivo, rat
Description: I. -- Formulations containing the polypeptide, gonadorelin also known as luteinizing hormone-releasing hormone (LH-RH) were evaluated for potency.
Prepared by hydrating each gum separately at 80° C. for 30 minutes and treated with a cell disrupter for 2 minutes. The gum solutions were mixed in the presence of hydrochloric acid by adjusting the pH to 3. Chlorobutanol was then dissolved in the mixed gum solution and filtered. LH-RH was then dissolved in the gum solution over a dose range of 0 to 500 nanograms.
The test solutions were administered subcutaneously to neuroleptically treated rats.

[2] = intranasal evaluation of LH-RH gum formulations; assay type: in vivo; conditions: 2% LH-RH, […] locust bean gum, […] xanthan gum, 0.5-1% phenylethyl alcohol
Description: II. -- Formulations containing 2% LH-RH, 0.25% locust bean gum, 0.25% xanthan gum, and 0.5-1% phenylethyl alcohol were also prepared and evaluated intranasally.

Rabbits' eyes = experiment: average miotic response intensity (pilocarpine hydrochloride formulations); assay type: in vivo, rabbit
Description: rabbit's eyes were treated with 2 drops of the test solution, and pupillary diameters were measued with a cathetometer. The miotic response intensity was computed by taking the difference in pupillary diameters at zero time and time "T" (i.e., hours after instillation) and dividing it by the pupillary diameter at zero time. The table below illustrates the average miotic response for all eyes as a function of hours after instillation.
Formulations containing pilocarpine hydrochloride were prepared as in Example 2 and are illustrated as follows: […]

SMILES: CC(C)C[C@H](NC(=O)CNC(=O)[C@H](Cc1ccc(O)cc1)NC(=O)[C@H](CO)NC(=O)[C@H](Cc1c[nH]c2ccccc12)NC(=O)[C@H](Cc1cnc[nH]1)NC(=O)[C@@H]1CCC(=O)N1)C(=O)N[C@@H](CCCNC(=N)N)C(=O)N1CCC[C@H]1C(=O)NCC(N)=O [LH-RH]
- Number of Ova Found ([1]; 31 NG s.c., Control (No Gums)): 0
- Number of Rats Ovulating ([1]; 31 NG s.c., Control (No Gums)): 0/10
- Number of Ova Found ([1]; 31 NG s.c., with 0.5% Gums): 0
- Number of Rats Ovulating ([1]; 31 NG s.c., with 0.5% Gums): 0/10
- Number of Ova Found ([1]; 62 NG s.c., Control (No Gums)): 7
- Number of Rats Ovulating ([1]; 62 NG s.c., Control (No Gums)): 2/10
- Number of Ova Found ([1]; 62 NG s.c., with 0.5% Gums): 8.7 ± 1.4
- Number of Rats Ovulating ([1]; 62 NG s.c., with 0.5% Gums): 3/10
- Number of Ova Found ([1]; 125 NG s.c., Control (No Gums)): 8 ± 1.2
- Number of Rats Ovulating ([1]; 125 NG s.c., Control (No Gums)): 5/10
- Number of Ova Found ([1]; 125 NG s.c., with 0.5% Gums): 10.6 ± 0.6
- Number of Rats Ovulating ([1]; 125 NG s.c., with 0.5% Gums): 7/10
- Number of Ova Found ([1]; 250 NG s.c., Control (No Gums)): 10.1 ± 0.5
- Number of Rats Ovulating ([1]; 250 NG s.c., Control (No Gums)): 8/10
- Number of Ova Found ([1]; 250 NG s.c., with 0.5% Gums): 11.2 ± 0.7
- Number of Rats Ovulating ([1]; 250 NG s.c., with 0.5% Gums): 9/10
- Number of Ova Found ([1]; 500 NG s.c., Control (No Gums)): 10.5 ± 0.6
- Number of Rats Ovulating ([1]; 500 NG s.c., Control (No Gums)): 10/10
- Number of Ova Found ([1]; 500 NG s.c., with 0.5% Gums): 11.5 ± 0.5
- Number of Rats Ovulating ([1]; 500 NG s.c., with 0.5% Gums): 10/10
- LH release and induction of ovulation ([1]; s.c., fluphenazine dihydrochloride pre-treated proestrous rats): released LH and subsequently induced ovulation
- LH-RH release after intranasal administration [2]: stimulates LH-RH release at a level greater than formulations without the mixed gums

SMILES: CC[C@@H]1C(=O)OC[C@@H]1Cc1cncn1C [pilocarpine hydrochloride]
- potentiation of miotic response by gums (Rabbits' eyes; combined locust bean and xanthan gums): potentiate the miotic response

SMILES: CC[C@@H]1C(=O)OC[C@@H]1Cc1cncn1C [pilocarpine]
- possible reduction of dose with gums (Rabbits' eyes; combined use of locust bean and xanthan gums): up to one fifth
